Measurements published in patent publication US8802353B2, “Compound for resist and radiation-sensitive composition specification” (Mitsubishi Gas Chemical Company, Inc., priority 2004, dated 2014).

Experiments:
Type in all cases: physicochemical
[1] = Glass transition temperature, crystallization temperature and quantity of crystallization heat (DSC); settings: for Glass transition temperature Rating / Glass transition temperature / Crystallization temperature: DSC; for Glass transition temperature: 20° C./min, nitrogen gas flow; for Glass transition temperature-Crystallization temperature: rating of the difference; for Crystallization temperature: exothermic peak
Experimental: A sample (about 10 mg) placed in a non-sealed aluminum container was heated to a temperature higher than the melting point at a temperature rising rate of 20° C./min in a nitrogen gas flow (50 ml/min). After being rapidly cooled, the sample was again heated to a temperature higher than the melting point at a temperature rising rate of 20° C./min in a nitrogen gas flow (30 ml/min). After being rapidly cooled, the sample was again heated to 400° C. at a temperature rising rate of 20° C./min in a nitrogen gas flow (30 ml/min), to conduct a differential scanning calorimetric analysis using DSC/TA-50WS manufactured by Shimadzu Corporation. The middle point of the region at which the base line turned discontinuous (the point at which the specific heat reduced to half) was taken as the glass transition temperature (Tg) and the temperature of the exothermic peak after the discontinuous region was taken as the crystallization temperature. The quantity of crystallization heat was determined by the area of the region which was surrounded by the exothermic peak and the base line. The sample was rated A when meeting Tg≧130° C., and rated C when meeting Tg≦130° C. Also, the sample was rated A when meeting (glass transition temperature)−(crystallization temperature)≧70° C., and rated C when meeting (glass transition temperature)-(crystallization temperature)<70° C.

[2] = Adhesion to silicon substrate; set-up: key: rated A when the film was not peeled from the silicon wafer; rated C when peeled off; settings: silicon wafer surface-treated with silane coupling agent
Experimental: The resist film formed in (2-2) was tested for its adhesion to the silicon wafer which was surface-treated with a silane coupling agent. The sample was rated A when the film was not peeled from the silicon wafer, and rated C when peeled off.

[3] = Film-forming property (spin-coated film on silicon wafer); set-up: key: rated C when the film was clouded or its surface was roughened; rated B when the film was partly clouded or roughened; rated A when the film had a good surface flatness without causing clouding; settings: 3% by weight solution spin-coated, 110° C. 3 min
Source text: A 3% by weight solution of the compound B or a mixture (compound B and polyphenol A) in PGME/PE (1/2 by weight) or acetone when not dissolved in PGME/PE was spin-coated on a silicon wafer which had been surface-treated with a silane coupling agent, to form a resist film with a thickness of about 0.05 μm.

[4] = Solubility in safety solvent; settings: 23° C.; PGMEA, PGME, ethyl lactate, butyl acetate, methyl 3-methoxypropionate, ethyl propionate
Experimental: The solubility of the compound B was tested at 23° C. using propylene glycol monomethyl ether acetate, propylene glycol monomethyl ether, ethyl lactate, butyl acetate, methyl 3-methoxypropionate and ethyl propionate. The sample was rated A when dissolved in any one of the above solvents in a concentration of 5 wt % or more, rated B when dissolved in a concentration of 0.1 to 5 wt %, and rated C when dissolved only in a concentration of less than 0.1 wt %.

Glass transition temperature Rating [1]	Glass transition temperature [1] [°C]	Adhesion to silicon substrate [2]	film-forming property [3]	SMILES	Glass transition temperature-Crystallization temperature [1]	Crystallization temperature [1] [°C]	Solubility to safety solvent [4]
A (rated A when meeting Tg≧130° C.)	145			Cc1cc(C(c2ccc3ccc(C(c4cc(C)c(O)cc4C)c4cc(C)c(O)cc4C)cc3c2)c2cc(C)c(O)cc2C)c(C)cc1O [Compound 104]	A (rated A when meeting (glass transition temperature)−(crystallization temperature)≧70° C.)	287	
A (rated A when meeting Tg≧130° C.)	137			Cc1cc(C(c2ccc(-c3cccc(-c4ccc(C(c5cc(C)c(O)cc5C)c5cc(C)c(O)cc5C)cc4)c3)cc2)c2cc(C)c(O)cc2C)c(C)cc1O [Compound 106]	A (rated A when meeting (glass transition temperature)−(crystallization temperature)≧70° C.)		
A (rated A when meeting Tg≧130° C.)	147			Cc1cc(C(c2ccc(-c3ccc(-c4ccc(C(c5cc(C)c(O)cc5C)c5cc(C)c(O)cc5C)cc4)cc3)cc2)c2cc(C)c(O)cc2C)c(C)cc1O [Compound 107]	A (rated A when meeting (glass transition temperature)−(crystallization temperature)≧70° C.)		
		A	A	CCOC(C)Oc1cc(C)c(C(c2ccc3cc(C(c4cc(C)c(O)cc4C)c4cc(C)c(O)cc4C)ccc3c2)c2cc(C)c(O)cc2C)cc1C (stereo not shown) [Compound 109]			A (rated A when dissolved in any one of the above solvents in a concentration of 5 wt % or more)
		A	A	Cc1cc(C(c2ccc3cc(C(c4cc(C)c(O)cc4C)c4cc(C)c(OC(C)OC5CCCCC5)cc4C)ccc3c2)c2cc(C)c(O)cc2C)c(C)cc1O (stereo not shown) [Compound 110]			A (rated A when dissolved in any one of the above solvents in a concentration of 5 wt % or more)
		A	A	CCOC(C)Oc1c(C)cc(C(c2ccc3cc(C(c4cc(C)c(O)c(C)c4C)c4cc(C)c(O)c(C)c4C)ccc3c2)c2cc(C)c(O)c(C)c2C)c(C)c1C (stereo not shown) [Compound 111]			A (rated A when dissolved in any one of the above solvents in a concentration of 5 wt % or more)
		A	A	Cc1cc(O)c(C(C)C)cc1C(c1ccc2cc(C(c3cc(C(C)C)c(O)cc3C)c3cc(C(C)C)c(OC(C)OC4CCCCC4)cc3C)ccc2c1)c1cc(C(C)C)c(O)cc1C (stereo not shown) [Compound 113]			A (rated A when dissolved in any one of the above solvents in a concentration of 5 wt % or more)
		A	A	Cc1cc(C(c2ccc3ccc(C(c4cc(C)c(O)c(C)c4C)c4cc(C)c(OC(C)OC5CCCCC5)c(C)c4C)cc3c2)c2cc(C)c(O)c(C)c2C)c(C)c(C)c1O (stereo not shown) [Compound 114]			A (rated A when dissolved in any one of the above solvents in a concentration of 5 wt % or more)
		A	A	Cc1cc(C(c2cc(C(c3cc(C)c(OC(=O)OC(C)(C)C)c(C)c3C)c3cc(C)c(OC(=O)OC(C)(C)C)c(C)c3C)cc(C(c3cc(C)c(OC(=O)OC(C)(C)C)c(C)c3C)c3cc(C)c(OC(=O)OC(C)(C)C)c(C)c3C)c2)c2cc(C)c(OC(=O)OC(C)(C)C)c(C)c2C)c(C)c(C)c1OC(=O)OC(C)(C)C [Compound 117]			A (rated A when dissolved in any one of the above solvents in a concentration of 5 wt % or more)
		A	A	Cc1cc(C(c2ccc3cc(C(c4cc(C)c(O)cc4C)c4cc(C)c(OC(C)OC5CCCCC5)cc4C)ccc3c2)c2cc(C)c(O)cc2C)c(C)cc1O (stereo not shown) [Compound 118]			A (rated A when dissolved in any one of the above solvents in a concentration of 5 wt % or more)
		A	A	CC(C)(C)OC(=O)Oc1ccc(C(c2ccc(OC(=O)OC(C)(C)C)cc2)c2ccc(OC(=O)OC(C)(C)C)cc2)cc1 [Compound 203, reference compound]			C (rated C when dissolved only in a concentration of less than 0.1 wt %)
		A	B	CC(C)(C)OC(=O)Oc1ccc(-c2cc(-c3ccc(OC(=O)OC(C)(C)C)cc3)cc(-c3ccc(OC(=O)OC(C)(C)C)cc3)c2)cc1 [Compound 204, reference compound]			A (rated A when dissolved in any one of the above solvents in a concentration of 5 wt % or more)
C (rated C when meeting Tg≦130° C.)	72			Cc1cc(C(C)(c2ccc(O)c(C)c2)c2ccc3ccccc3c2)ccc1O [Compound 206, 1-(2-naphthyl)-1,1-bis(3-methyl-4-hydroxyphenyl)ethane, reference compound]	A (rated A when meeting (glass transition temperature)−(crystallization temperature)≧70° C.)		

Further lines, the compound ahead of its results:

SMILES	Glass transition temperature Rating [1]	Glass transition temperature [1] [°C]	Adhesion to silicon substrate [2]	film-forming property [3]	Glass transition temperature-Crystallization temperature [1]	Crystallization temperature [1] [°C]	Solubility to safety solvent [4]
Cc1cc(C(c2ccc3cc(C(c4cc(C)c(O)cc4C)c4cc(C)c(O)cc4C)ccc3c2)c2cc(C)c(O)cc2C)c(C)cc1O [Compound 101, tetrakis(2,5-xylenol)-2,6-naphthalenedialdehyde]	A (rated A when meeting Tg≧130° C.)	144			A (rated A when meeting (glass transition temperature)−(crystallization temperature)≧70° C.)		
Cc1cc(C(c2ccc3cc(C(c4cc(C)c(O)c(C)c4C)c4cc(C)c(O)c(C)c4C)ccc3c2)c2cc(C)c(O)c(C)c2C)c(C)c(C)c1O [Compound 102]	A (rated A when meeting Tg≧130° C.)	136			A (rated A when meeting (glass transition temperature)−(crystallization temperature)≧70° C.)		
Cc1cc(C(c2ccc3cc(C(c4cc(C)c(O)c(C)c4C)c4cc(C)c(OC(C)OC5CCCCC5)c(C)c4C)ccc3c2)c2cc(C)c(O)c(C)c2C)c(C)c(C)c1O (stereo not shown) [Compound 112]			A	A			A (rated A when dissolved in any one of the above solvents in a concentration of 5 wt % or more)
Cc1cc(C(c2ccc(-c3cccc(-c4ccc(C(c5cc(C)c(O)cc5C)c5cc(C)c(OC(C)OC6CCCCC6)cc5C)cc4)c3)cc2)c2cc(C)c(O)cc2C)c(C)cc1O (stereo not shown) [Compound 115]			A	A			A (rated A when dissolved in any one of the above solvents in a concentration of 5 wt % or more)
Cc1cc(C(c2ccc(-c3ccc(-c4ccc(C(c5cc(C)c(O)cc5C)c5cc(C)c(OC(C)OC6CCCCC6)cc5C)cc4)cc3)cc2)c2cc(C)c(O)cc2C)c(C)cc1O (stereo not shown) [Compound 116]			A	A			A (rated A when dissolved in any one of the above solvents in a concentration of 5 wt % or more)
Cc1cc(C(c2cc(C(c3cc(C)c(O)c(C)c3C)c3cc(C)c(O)c(C)c3C)cc(C(c3cc(C)c(O)c(C)c3C)c3cc(C)c(OC(C)OC4CCCCC4)c(C)c3C)c2)c2cc(C)c(O)c(C)c2C)c(C)c(C)c1O (stereo not shown) [Compound 119]			A	A			A (rated A when dissolved in any one of the above solvents in a concentration of 5 wt % or more)
CC(C)(C)OC(=O)Oc1ccc(C(C)(C)c2ccc(OC(=O)OC(C)(C)C)cc2)cc1 [Compound 201, reference compound]							C (rated C when dissolved only in a concentration of less than 0.1 wt %)
CC(C)(C)OC(=O)Oc1ccc(C2(c3ccc(OC(=O)OC(C)(C)C)cc3)CCCCC2)cc1 [Compound 202, reference compound]							C (rated C when dissolved only in a concentration of less than 0.1 wt %)
Oc1ccc(C2(c3ccc(O)cc3)c3ccccc3-c3ccccc32)cc1 [Compound 209, bisphenol fluorene, reference compound]	C (rated C when meeting Tg≦130° C.)	101			C (rated C when meeting (glass transition temperature)-(crystallization temperature)<70° C.)	157.7	
